# pIC50: −log10 of the molar value.
# Columns and labels:
# [1] = Half life in dog at 5 mg/kg, iv; format: ADME, organism-based, Canis lupus familiaris; settings: in vivo
# [2] = biological target: Serine/threonine-protein kinase PLK3 (Homo sapiens) (UniProt Q9H4B4); test: Inhibition of human Plk3 at 0.1 uM
# [3] = biological target: Serine/threonine-protein kinase PLK3 (Homo sapiens) (UniProt Q9H4B4); test: Inhibition of human Plk3 at 0.01 uM
# [4] = Volume of distribution at steady state in dog at 5 mg/kg, iv; format: ADME, organism-based, Canis lupus familiaris; settings: in vivo, read-out: Vdss
# [5] = test system: Proto-oncogene tyrosine-protein kinase receptor Ret (Homo sapiens), P07949 [V804L]; settings: 0.01 uM
# Description: Inhibition of human Ret V804L mutant at 0.01 uM
# Mus musculus = test: Anti-arthritic activity in DBA1/J mouse model of collagen-induced arthritis assessed as reduction in arthritis clinical scores at 30 mg/kg, po administered orally continued once daily and twice daily through study; format: functional
# [6] = biological target: Tyrosine-protein kinase HCK (Homo sapiens) (UniProt P08631); test: Inhibition of human Hck at 0.1 uM
# [7] = biological target: Tyrosine-protein kinase Blk (Homo sapiens) (UniProt P51451); test: Inhibition of human Blk at 0.1 uM
# [8] = biological target: Mitogen-activated protein kinase kinase kinase 9 (Homo sapiens) (UniProt P80192); test: Inhibition of human MLK1 at 0.1 uM
# [9] = test system: Epidermal growth factor receptor (Homo sapiens), P00533 [L858R,T790M]; test: Inhibition of human EGFR T790M/L858R mutant at 0.01 uM; format: protein assay
# [10] = test system: Epidermal growth factor receptor (Homo sapiens), P00533 [T790M]; test: Inhibition of human EGFR T790M mutant at 0.01 uM; format: protein assay
# [11] = biological target: Tyrosine-protein kinase SYK (Homo sapiens, UniProt P43405); test: Inhibition of SYK-mediated TNFalpha production in human IgG-stimulated human THP1 cells incubated for 18 hrs by ELISA method; format: cell-based, THP-1
# Sequence of Serine/threonine-protein kinase PLK3 (Homo sapiens) (Q9H4B4 whole entry, looked up): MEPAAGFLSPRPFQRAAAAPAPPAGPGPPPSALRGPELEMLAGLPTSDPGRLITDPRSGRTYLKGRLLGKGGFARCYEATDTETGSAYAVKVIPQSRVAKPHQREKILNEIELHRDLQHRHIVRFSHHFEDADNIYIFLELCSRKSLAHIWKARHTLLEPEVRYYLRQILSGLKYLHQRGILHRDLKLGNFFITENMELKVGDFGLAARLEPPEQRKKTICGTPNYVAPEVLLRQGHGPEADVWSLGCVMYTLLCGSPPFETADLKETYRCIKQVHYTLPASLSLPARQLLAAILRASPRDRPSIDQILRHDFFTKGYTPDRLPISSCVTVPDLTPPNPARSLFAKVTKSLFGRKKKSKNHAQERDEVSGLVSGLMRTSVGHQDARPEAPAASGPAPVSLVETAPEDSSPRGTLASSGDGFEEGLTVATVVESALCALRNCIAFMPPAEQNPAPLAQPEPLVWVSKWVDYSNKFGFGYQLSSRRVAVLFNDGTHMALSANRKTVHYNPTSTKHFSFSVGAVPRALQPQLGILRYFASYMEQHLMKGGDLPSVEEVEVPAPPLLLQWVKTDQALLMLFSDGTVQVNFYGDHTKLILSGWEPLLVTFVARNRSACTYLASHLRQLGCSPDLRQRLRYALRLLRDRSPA
# Sequence of Tyrosine-protein kinase Blk (Homo sapiens) (P51451 2-505 limits assumed): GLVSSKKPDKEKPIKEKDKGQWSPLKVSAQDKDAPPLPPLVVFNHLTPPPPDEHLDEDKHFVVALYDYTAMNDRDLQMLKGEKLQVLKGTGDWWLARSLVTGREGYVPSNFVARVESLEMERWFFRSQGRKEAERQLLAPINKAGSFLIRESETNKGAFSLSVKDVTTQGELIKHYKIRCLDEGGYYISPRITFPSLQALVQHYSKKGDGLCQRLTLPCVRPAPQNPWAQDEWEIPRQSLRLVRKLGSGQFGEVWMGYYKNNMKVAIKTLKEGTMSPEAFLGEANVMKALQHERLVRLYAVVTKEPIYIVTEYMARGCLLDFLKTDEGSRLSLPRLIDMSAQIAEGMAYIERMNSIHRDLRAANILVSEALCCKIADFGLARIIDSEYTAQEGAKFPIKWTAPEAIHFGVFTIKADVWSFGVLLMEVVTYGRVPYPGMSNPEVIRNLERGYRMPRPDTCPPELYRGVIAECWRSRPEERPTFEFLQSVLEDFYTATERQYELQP
# Sequence of Mitogen-activated protein kinase kinase kinase 9 (Homo sapiens) (P80192 whole entry, looked up): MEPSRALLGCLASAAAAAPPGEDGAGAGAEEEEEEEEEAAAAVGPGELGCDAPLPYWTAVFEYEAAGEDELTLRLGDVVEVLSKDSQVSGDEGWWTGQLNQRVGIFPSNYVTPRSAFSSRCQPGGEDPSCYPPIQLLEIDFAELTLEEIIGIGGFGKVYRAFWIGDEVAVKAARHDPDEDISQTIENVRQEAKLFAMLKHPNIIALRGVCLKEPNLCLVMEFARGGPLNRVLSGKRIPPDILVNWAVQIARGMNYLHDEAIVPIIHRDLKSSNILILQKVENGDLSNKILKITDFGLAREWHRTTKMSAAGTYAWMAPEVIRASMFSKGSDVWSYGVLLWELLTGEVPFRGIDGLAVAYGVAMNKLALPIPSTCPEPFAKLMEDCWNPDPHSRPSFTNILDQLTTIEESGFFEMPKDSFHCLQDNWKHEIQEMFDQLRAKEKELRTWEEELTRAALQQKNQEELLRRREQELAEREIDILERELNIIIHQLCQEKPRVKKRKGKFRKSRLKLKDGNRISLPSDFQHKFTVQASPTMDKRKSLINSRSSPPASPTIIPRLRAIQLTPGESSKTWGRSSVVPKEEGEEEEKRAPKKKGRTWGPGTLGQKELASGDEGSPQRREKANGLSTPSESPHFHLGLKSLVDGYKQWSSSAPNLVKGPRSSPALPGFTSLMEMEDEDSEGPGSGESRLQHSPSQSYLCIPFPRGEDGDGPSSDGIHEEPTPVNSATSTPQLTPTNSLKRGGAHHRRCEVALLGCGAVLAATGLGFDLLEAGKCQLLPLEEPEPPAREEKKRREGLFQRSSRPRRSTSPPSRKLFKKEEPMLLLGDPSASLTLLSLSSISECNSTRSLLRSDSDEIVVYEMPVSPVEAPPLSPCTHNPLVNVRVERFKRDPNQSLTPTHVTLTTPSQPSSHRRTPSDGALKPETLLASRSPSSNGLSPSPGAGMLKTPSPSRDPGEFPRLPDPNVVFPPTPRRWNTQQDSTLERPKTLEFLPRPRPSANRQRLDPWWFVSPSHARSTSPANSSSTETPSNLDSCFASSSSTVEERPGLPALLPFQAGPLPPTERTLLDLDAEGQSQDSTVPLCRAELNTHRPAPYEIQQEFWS
# Sequence of Proto-oncogene tyrosine-protein kinase receptor Ret (Homo sapiens), P07949 [V804L] (P07949 whole entry V804L): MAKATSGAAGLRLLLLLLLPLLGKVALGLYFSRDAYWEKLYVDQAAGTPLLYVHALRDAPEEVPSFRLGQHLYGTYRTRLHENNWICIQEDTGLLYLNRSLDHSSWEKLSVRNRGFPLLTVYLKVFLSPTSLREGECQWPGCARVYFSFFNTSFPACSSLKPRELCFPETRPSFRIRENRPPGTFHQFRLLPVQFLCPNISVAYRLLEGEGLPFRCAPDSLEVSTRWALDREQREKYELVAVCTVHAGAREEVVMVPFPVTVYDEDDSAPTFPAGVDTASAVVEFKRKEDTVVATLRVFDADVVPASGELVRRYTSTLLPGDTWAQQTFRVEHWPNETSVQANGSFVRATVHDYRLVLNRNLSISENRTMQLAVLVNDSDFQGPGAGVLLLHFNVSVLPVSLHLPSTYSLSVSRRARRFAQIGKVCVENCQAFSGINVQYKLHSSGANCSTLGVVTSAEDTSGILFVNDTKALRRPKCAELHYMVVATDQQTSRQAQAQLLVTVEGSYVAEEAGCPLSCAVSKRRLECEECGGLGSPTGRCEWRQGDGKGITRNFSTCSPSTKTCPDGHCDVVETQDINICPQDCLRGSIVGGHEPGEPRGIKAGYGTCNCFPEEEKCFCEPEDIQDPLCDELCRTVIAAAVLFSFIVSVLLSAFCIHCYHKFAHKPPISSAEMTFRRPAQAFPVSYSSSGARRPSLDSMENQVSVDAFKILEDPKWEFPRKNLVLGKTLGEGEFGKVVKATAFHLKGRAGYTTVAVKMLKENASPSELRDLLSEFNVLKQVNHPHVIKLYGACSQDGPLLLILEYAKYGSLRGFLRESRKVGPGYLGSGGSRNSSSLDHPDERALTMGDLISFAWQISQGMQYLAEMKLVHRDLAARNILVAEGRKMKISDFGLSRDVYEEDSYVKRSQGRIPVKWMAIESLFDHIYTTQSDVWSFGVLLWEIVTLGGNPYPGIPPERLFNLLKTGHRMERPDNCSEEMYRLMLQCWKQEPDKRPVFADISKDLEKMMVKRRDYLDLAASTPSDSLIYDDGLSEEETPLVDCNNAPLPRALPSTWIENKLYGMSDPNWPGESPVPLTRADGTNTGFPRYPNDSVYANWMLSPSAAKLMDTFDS
# Sequence of Tyrosine-protein kinase HCK (Homo sapiens) (P08631 2-526 limits assumed): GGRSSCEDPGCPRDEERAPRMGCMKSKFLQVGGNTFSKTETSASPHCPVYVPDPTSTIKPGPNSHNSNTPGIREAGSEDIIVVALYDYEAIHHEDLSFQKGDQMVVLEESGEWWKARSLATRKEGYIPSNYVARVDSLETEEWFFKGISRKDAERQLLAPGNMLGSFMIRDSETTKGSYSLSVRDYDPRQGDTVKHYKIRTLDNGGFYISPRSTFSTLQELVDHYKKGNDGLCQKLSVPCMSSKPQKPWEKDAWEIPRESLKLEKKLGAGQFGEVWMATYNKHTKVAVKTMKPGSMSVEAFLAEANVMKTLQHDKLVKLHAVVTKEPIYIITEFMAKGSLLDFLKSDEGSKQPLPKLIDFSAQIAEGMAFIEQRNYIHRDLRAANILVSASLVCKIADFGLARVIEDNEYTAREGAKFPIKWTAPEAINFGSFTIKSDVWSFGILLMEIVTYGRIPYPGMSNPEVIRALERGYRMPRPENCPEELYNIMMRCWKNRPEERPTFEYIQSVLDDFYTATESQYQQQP
# Sequence of Epidermal growth factor receptor (Homo sapiens), P00533 [L858R,T790M] (P00533 whole entry T790M/L858R, looked up): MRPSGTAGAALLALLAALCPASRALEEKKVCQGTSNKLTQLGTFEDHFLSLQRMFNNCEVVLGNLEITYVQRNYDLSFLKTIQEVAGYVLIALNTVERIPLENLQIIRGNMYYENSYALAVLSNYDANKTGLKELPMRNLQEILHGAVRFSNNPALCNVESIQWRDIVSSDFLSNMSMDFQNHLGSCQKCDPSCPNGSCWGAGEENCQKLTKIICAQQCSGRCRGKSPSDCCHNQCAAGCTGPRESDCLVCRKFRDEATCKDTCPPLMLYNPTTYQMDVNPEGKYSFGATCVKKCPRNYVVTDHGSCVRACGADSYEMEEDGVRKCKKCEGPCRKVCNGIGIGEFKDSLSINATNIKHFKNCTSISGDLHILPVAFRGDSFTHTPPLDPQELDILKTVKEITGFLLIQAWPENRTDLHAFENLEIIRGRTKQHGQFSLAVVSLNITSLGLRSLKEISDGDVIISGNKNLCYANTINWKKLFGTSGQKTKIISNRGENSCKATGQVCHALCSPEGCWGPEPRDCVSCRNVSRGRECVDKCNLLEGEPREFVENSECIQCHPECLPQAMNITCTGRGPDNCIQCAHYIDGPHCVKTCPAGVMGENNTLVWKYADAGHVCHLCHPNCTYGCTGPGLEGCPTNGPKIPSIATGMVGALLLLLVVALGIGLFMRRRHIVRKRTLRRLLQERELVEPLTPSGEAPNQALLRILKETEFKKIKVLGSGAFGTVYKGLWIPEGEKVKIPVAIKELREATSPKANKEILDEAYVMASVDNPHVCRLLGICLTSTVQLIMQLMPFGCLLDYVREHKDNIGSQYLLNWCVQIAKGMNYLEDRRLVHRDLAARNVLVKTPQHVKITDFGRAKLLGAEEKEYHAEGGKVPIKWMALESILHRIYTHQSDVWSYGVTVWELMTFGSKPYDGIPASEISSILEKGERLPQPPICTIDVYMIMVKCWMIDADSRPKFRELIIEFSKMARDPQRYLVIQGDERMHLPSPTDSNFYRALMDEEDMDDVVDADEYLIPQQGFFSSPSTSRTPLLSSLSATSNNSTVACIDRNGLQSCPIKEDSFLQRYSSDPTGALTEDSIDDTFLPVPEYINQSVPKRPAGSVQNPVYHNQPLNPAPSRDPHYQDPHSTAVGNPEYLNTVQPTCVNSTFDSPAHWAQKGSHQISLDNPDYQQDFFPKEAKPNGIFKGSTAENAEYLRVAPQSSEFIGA
half-life [1] [h],inhibition [2] [%],inhibition [3] [%],Vd [4] [L/kg],inhibition [5] [%],inhibition [6] [%],inhibition [7] [%],inhibition [8] [%],inhibition [9] [%],inhibition [10] [%],pIC50 [11],Compound,inhibition in vivo at 30 mg/kg (Mus musculus) [%]
4.6,> 70,< 50,7.1,< 50,< 25,< 25,91,< 50,< 50,–,Cc1nn(-c2ccnc(Nc3ccc4c(c3)c(Cl)c(C)n4C)n2)cc1CN1CC(O)C1,50
–,–,–,–,–,–,–,–,–,–,7.25,Cc1nn(-c2ccnc(Nc3ccc4c(c3)c(C)c(C)n4C)n2)cc1CN1CC(O)C1,–

# — ChEMBL document CHEMBL3621069 (Bioorg Med Chem Lett, 2015)
